Test results as given in paper PMC2649009 (Journal of medicinal chemistry, 2008).

Biological target: T1, human GIVA cPLA2 (Homo sapiens, UniProt P47712)
T1 sequence (P47712 1-749): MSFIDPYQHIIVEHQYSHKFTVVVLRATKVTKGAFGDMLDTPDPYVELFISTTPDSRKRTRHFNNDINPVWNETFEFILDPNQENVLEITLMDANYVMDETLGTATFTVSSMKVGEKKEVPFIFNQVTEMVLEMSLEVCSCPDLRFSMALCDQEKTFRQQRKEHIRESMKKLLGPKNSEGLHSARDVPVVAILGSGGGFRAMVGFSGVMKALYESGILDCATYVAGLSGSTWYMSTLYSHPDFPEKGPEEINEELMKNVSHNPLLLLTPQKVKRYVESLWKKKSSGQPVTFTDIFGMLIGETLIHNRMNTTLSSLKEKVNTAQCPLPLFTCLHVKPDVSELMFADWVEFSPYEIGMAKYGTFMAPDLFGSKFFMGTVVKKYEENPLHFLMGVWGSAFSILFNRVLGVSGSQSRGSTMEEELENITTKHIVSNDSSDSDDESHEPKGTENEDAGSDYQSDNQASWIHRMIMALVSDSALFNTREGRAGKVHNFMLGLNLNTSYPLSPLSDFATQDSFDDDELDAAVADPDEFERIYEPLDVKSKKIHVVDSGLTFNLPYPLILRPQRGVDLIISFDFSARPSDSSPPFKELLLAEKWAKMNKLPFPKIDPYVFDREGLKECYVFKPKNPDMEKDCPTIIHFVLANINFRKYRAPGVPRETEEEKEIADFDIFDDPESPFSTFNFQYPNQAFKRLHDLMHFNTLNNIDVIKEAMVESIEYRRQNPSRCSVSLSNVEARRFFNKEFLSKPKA
Experiment: mixed micelle-based modified Dole assay, GIVA cPLA2 inhibition
Assay type: biochemical
Details: mole fraction of inhibitor in total substrate interface giving 50% inhibition

Row | Compound | GIVA cPLA2 XI(50) [mole fraction]
1 | CCCCCCCCCCCCCCCC(=O)C(F)(F)F [compound 6, palmitoyl trifluoromethyl ketone, reference compound] | 0.0223
2 | CCCCCCCCCCCCCCC(F)C(=O)C(F)(F)F (centres unmarked) [compound 26, 1,1,1,3-Tetrafluoro-heptadecan-2-one] | 0.0167
